# Columns and labels:
# [1] = tested on: RAW264.7; assay: Antioxidant activity in LPS induced mouse RAW264.7 cells assessed as superoxide anion scavenging activity at 10 uM after 24 hrs by HE probe based HPLC-MS analysis relative to control; type: functional
# [2] = target: Xanthine dehydrogenase/oxidase (Homo sapiens, UniProt P47989); assay: Inhibition of Xanthine oxidase (unknown origin) using xanthine as substrate preincubated for 3 mins followed by substrate addition measured every 15 secs for 7 mins by spectrophotometry
# Chain of Xanthine dehydrogenase/oxidase (P47989 whole entry): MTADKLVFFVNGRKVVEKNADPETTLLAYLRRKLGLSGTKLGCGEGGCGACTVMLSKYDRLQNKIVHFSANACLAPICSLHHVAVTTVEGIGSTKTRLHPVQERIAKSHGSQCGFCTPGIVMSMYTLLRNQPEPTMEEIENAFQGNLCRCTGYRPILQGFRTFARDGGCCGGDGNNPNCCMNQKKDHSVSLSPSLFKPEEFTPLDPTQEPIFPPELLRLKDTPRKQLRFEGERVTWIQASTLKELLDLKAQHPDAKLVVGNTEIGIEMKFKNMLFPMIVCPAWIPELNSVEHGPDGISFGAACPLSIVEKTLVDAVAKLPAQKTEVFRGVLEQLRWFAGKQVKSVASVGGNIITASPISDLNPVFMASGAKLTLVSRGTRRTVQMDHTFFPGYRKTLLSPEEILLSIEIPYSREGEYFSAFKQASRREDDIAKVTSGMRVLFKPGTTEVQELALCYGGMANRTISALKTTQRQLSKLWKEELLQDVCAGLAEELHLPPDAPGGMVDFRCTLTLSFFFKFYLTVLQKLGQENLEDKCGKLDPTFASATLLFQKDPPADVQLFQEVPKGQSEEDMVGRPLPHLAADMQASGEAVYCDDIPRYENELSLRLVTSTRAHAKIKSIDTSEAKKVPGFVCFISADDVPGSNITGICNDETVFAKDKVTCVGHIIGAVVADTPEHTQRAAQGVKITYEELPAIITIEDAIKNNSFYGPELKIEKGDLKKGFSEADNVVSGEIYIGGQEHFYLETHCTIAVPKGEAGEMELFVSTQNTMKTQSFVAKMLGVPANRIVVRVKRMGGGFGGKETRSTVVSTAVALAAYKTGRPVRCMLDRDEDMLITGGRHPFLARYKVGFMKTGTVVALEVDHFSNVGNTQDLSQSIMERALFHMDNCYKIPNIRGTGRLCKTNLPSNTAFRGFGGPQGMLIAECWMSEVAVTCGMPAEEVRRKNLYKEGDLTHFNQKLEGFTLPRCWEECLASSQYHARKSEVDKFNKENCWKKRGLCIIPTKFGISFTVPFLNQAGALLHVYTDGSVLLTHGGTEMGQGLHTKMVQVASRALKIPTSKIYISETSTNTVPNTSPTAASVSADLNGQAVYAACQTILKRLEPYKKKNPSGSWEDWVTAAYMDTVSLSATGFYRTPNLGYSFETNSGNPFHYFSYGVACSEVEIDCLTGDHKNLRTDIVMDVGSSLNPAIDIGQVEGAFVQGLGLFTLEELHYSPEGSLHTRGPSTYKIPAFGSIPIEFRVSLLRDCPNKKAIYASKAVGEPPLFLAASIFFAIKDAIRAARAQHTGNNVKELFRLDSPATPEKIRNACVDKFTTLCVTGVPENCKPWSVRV
# [3] = Antioxidant activity assessed as DPPH radical scavenging activity incubated for 30 mins under dark conditions by spectrophotometry; type: functional
IC50 [2],IC50 [3],Compound,Activity [1]
–,–,C[C@H](NC(=O)/C=C/c1ccc(O)c2oc(-c3ccc(O)c(O)c3)cc12)C(=O)O,41.65%
8.26 µM,6.87 µM,O=C(/C=C/c1ccc(O)c2oc(-c3ccc(O)c(O)c3)cc12)O[C@H](Cc1ccc(O)c(O)c1)C(=O)O,37.82%
> 60 µM,> 100 µM,COC(=O)[C@H](C)NC(=O)/C=C/c1ccc(OC)c2oc(-c3ccc(OC)c(OC)c3)cc12,–
–,–,O=C(/C=C/c1ccc(O)c2oc(-c3ccc(O)c(O)c3)cc12)N[C@@H](Cc1ccccc1)C(=O)O,81.27%
–,–,COC(=O)[C@@H](Cc1ccc(O)c(O)c1)NC(=O)/C=C/c1ccc(O)c2oc(-c3ccc(O)c(O)c3)cc12,74.16%
–,–,COC(=O)[C@H](C)NC(=O)/C=C/c1ccc(O)c2oc(-c3ccc(O)c(O)c3)cc12,60.54%
–,–,VITAMIN E,53.2%
–,–,O=C(/C=C/c1ccc(O)c2oc(-c3ccc(O)c(O)c3)cc12)N[C@H](Cc1ccc(O)c(O)c1)C(=O)O,80.81%
> 60 µM,> 100 µM,COC(=O)[C@H](Cc1ccccc1)NC(=O)/C=C/c1ccc(OC)c2oc(-c3ccc(OC)c(OC)c3)cc12,–
–,–,COC(=O)[C@H](Cc1ccc(O)c(O)c1)NC(=O)/C=C/c1ccc(O)c2oc(-c3ccc(O)c(O)c3)cc12,78.59%
> 60 µM,> 100 µM,COC(=O)[C@@H](Cc1c[nH]c2ccccc12)NC(=O)/C=C/c1ccc(OC)c2oc(-c3ccc(OC)c(OC)c3)cc12,–
–,–,O=C(/C=C/c1ccc(O)c2oc(-c3ccc(O)c(O)c3)cc12)N[C@@H](Cc1ccc(O)cc1)C(=O)O,83.41%

# Source: ChEMBL document CHEMBL4000156 (Eur J Med Chem, 2016)
